PubChem BioAssay (NCI)
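Exposure lasted 48 hours, with cells grown in 96-well plates and compounds tested at five concentrations. The concentration for 50% growth inhibition is given as GI50. TGI: concentration producing complete growth inhibition.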

Legend:
Test in all cases: NCI-60 cell line screen, 48 h
[1] = tested on: 786-0 renal
[2] = tested on: A498 renal
[3] = tested on: A549 NSCLC
[4] = tested on: ACHN renal
[5] = tested on: BT-549 breast
[6] = tested on: CAKI-1 renal
[7] = tested on: CCRF-CEM leukemia
[8] = tested on: COLO 205 colon
[9] = tested on: DU-145 prostate
[10] = tested on: EKVX NSCLC
[11] = tested on: HCT-116 colon
[12] = tested on: HCT-15 colon
[13] = tested on: HL-60(TB) leukemia
[14] = tested on: HOP-62 NSCLC
[15] = tested on: HOP-92 NSCLC
[16] = tested on: HS 578T breast
[17] = tested on: HT29 colon
[18] = tested on: IGROV1 ovarian
[19] = tested on: K-562 leukemia
[20] = tested on: KM12 colon
[21] = tested on: LOX IMVI melanoma
[22] = tested on: M14 melanoma
[23] = tested on: MALME-3M melanoma
[24] = tested on: MCF7 breast
[25] = tested on: MDA-MB-231 breast
[26] = tested on: MDA-MB-435
[27] = tested on: MOLT-4 leukemia
[28] = tested on: NCI-H226 lung
[29] = tested on: NCI-H23 lung
[30] = tested on: NCI-H460 lung
[31] = tested on: NCI-H522 lung
[32] = tested on: NCI/ADR-RES ovarian
[33] = tested on: OVCAR-3 ovarian
[34] = tested on: OVCAR-4 ovarian
[35] = tested on: OVCAR-8 ovarian
[36] = tested on: PC-3 prostate
[37] = tested on: RPMI-8226 leukemia
[38] = tested on: RXF 393 renal
[39] = tested on: SF-268 CNS
[40] = tested on: SF-295 CNS
[41] = tested on: SF-539 CNS
[42] = tested on: SK-MEL-28 melanoma
[43] = tested on: SK-MEL-5 melanoma
[44] = tested on: SK-OV-3 ovarian
[45] = tested on: SN12C renal
[46] = tested on: SNB-19 CNS
[47] = tested on: SNB-75 CNS
[48] = tested on: SR leukemia
[49] = tested on: SW-620 colon
[50] = tested on: T-47D breast
[51] = tested on: TK-10 renal
[52] = tested on: U251 CNS
[53] = tested on: UACC-257 melanoma
[54] = tested on: UACC-62 melanoma
[55] = tested on: UO-31 renal

**Q.** Which results are given for NC1CC(=O)c2c(-c3cccs3)sc(-c3cccs3)c21 (stereo not given)?
**A.** GI50 [1]: 11.7 µM; TGI [1]: > 100 µM; GI50 [2]: 77.8 µM; TGI [2]: > 100 µM; GI50 [3]: 53.2 µM; TGI [3]: > 100 µM; GI50 [4]: 10 µM; TGI [4]: 25.5 µM; GI50 [5]: 19.5 µM; TGI [5]: 63.8 µM; GI50 [6]: 33.4 µM; TGI [6]: > 100 µM; GI50 [7]: 3.89 µM; TGI [7]: > 100 µM; GI50 [8]: 21.5 µM; TGI [8]: 63.8 µM; GI50 [9]: 14.4 µM; TGI [9]: 32.9 µM; GI50 [10]: 51.3 µM; TGI [10]: > 100 µM; GI50 [11]: 15.3 µM; TGI [11]: 29.9 µM; GI50 [12]: 3.04 µM; TGI [12]: 22.4 µM; GI50 [13]: 20.5 µM; TGI [13]: 61.1 µM; GI50 [14]: 73.4 µM; TGI [14]: > 100 µM; GI50 [15]: 16.6 µM; TGI [15]: 66.2 µM; GI50 [16]: 36.7 µM; TGI [16]: > 100 µM; GI50 [17]: 19.5 µM; TGI [17]: 50.1 µM; GI50 [18]: 27.3 µM; TGI [18]: > 100 µM; GI50 [19]: 25 µM; TGI [19]: > 100 µM; GI50 [20]: 25 µM; TGI [20]: > 100 µM; GI50 [21]: 12.7 µM; TGI [21]: 29 µM; GI50 [22]: 37.3 µM; TGI [22]: > 100 µM; GI50 [23]: 37.8 µM; TGI [23]: > 100 µM; GI50 [24]: 16.9 µM; TGI [24]: 44.4 µM; GI50 [25]: 27.9 µM; TGI [25]: > 100 µM; GI50 [26]: 38.8 µM; TGI [26]: > 100 µM; GI50 [27]: 18.5 µM; TGI [27]: > 100 µM; GI50 [28]: 21.6 µM; TGI [28]: 48.3 µM; GI50 [29]: 23.1 µM; TGI [29]: 57.6 µM; GI50 [30]: 38.7 µM; TGI [30]: > 100 µM; GI50 [31]: 22.1 µM; TGI [31]: 87.5 µM; GI50 [32]: 29.5 µM; TGI [32]: > 100 µM; GI50 [33]: 26.1 µM; TGI [33]: 92.4 µM; GI50 [34]: 43 µM; TGI [34]: > 100 µM; GI50 [35]: 30.2 µM; TGI [35]: > 100 µM; GI50 [36]: 30.8 µM; TGI [36]: > 100 µM; GI50 [37]: 12.3 µM; TGI [37]: 49.7 µM; GI50 [38]: 59.1 µM; TGI [38]: > 100 µM; GI50 [39]: 30.8 µM; TGI [39]: > 100 µM; GI50 [40]: 85.4 µM; TGI [40]: > 100 µM; GI50 [41]: 21.3 µM; TGI [41]: 47.6 µM; GI50 [42]: 19.2 µM; TGI [42]: 39.7 µM; GI50 [43]: 28 µM; TGI [43]: > 100 µM; GI50 [44]: > 100 µM; TGI [44]: > 100 µM; GI50 [45]: 24.3 µM; TGI [45]: 69.8 µM; GI50 [46]: 36 µM; TGI [46]: > 100 µM; GI50 [47]: 22.6 µM; TGI [47]: 89.8 µM; GI50 [48]: 7.03 µM; TGI [48]: > 100 µM; GI50 [49]: 9.11 µM; TGI [49]: 58 µM; GI50 [50]: 10.7 µM; TGI [50]: 36.5 µM; GI50 [51]: 16.3 µM; TGI [51]: 40.3 µM; GI50 [52]: 16.7 µM; TGI [52]: 34 µM; GI50 [53]: 52.3 µM; TGI [53]: > 100 µM; GI50 [54]: 55.9 µM; TGI [54]: > 100 µM; GI50 [55]: 24.7 µM; TGI [55]: > 100 µM
